The assay deals with T1, IDO1 (Homo sapiens, UniProt P14902).
T1 construct: endogenous in cells; host or cells: HeLa cells (ATCC), IDO1 induced with 10 ng/mL IFNgamma
The experiment in a line: IDO1 cell-based assay. As to conditions: HeLa cells, 10 ng/mL IFNgamma, 24 hours with test compound; N-Formyl Kynurenine and L-tryptophan quantified by RFMS.

T1 sequence (P14902 whole entry): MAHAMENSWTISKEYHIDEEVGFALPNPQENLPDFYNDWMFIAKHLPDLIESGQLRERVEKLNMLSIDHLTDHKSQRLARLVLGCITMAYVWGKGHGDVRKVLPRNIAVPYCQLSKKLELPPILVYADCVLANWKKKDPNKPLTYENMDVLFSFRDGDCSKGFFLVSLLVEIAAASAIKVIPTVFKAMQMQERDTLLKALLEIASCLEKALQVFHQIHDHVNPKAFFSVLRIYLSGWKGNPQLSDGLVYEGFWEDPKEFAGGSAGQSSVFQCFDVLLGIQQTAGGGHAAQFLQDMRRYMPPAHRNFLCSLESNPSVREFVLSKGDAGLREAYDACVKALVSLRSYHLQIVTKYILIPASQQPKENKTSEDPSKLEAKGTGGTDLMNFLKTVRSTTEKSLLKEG

A word on the IC50: it is the concentration needed to halve the response being measured. In the case of “2-((1R,3s,5S,6r)-3-((6- fluoroquinolin-4-yl)oxy)- bicyclo[3.1.0]hexan-6-yl)- N-(1-(trifluoromethyl)-1H- pyrazol-3-yl)propanamide [Example 102]”, it took 3.7 nM to reach half-maximal inhibition (IC50). The molecule “2-((1R,3s,5S,6r)-3-((6- fluoroquinolin-4-yl)oxy)- bicyclo[3.1.0]hexan-6-yl)- N-(5-(4-methyl-4H-1,2,4- triazol-3-yl)pyridin-2-yl)- propanamide [Example 97]” displayed an IC50 of 818 nM. Under `CC(C(=O)Nc1ccc(F)cn1)[C@H]1[C@@H]2C[C@@H](n3cnc4cc(F)c(F)cc43)C[C@@H]21` (stereo partly drawn) [Example 4, 2-((1R,3s,5S,6r)-3-(5,6-difluoro-1H-benzo[d]imidazol-1-yl)bicyclo[3.1.0]hexan-6-yl)-N-(5-fluoropyridin-2-yl)propanamide] stands 5.1 nM. The value for `COc1ccc(-c2ccc(NC(=O)[C@@H](C)[C@H]3[C@@H]4C[C@@H](n5cnc6cc(F)c(F)cc65)C[C@@H]43)cc2)cn1` [Example 6, (S)-2-((1R,3R,5S,6r)-3-(5,6-difluoro-1H-benzo[d]imidazol-1-yl)bicyclo[3.1.0]hexan-6-yl)-N-(4-(6-methoxypyridin-3-yl)phenyl)propanamide] was 329 nM.

With `CC(C(=O)NC12CC(CO)(C1)C2)[C@H]1[C@@H]2C[C@@H](Oc3ccnc4ccc(F)cc34)C[C@@H]21` (stereo partly drawn) [Example 7, 2-((1R,3s,5S,6r)-3-((6-fluoroquinolin-4-yl)oxy)bicyclo[3.1.0]hexan-6-yl)-N-(3-(hydroxy-methyl)bicyclo[1.1.1]pentan-1-yl)propanamide], the 50% inhibitory concentration (IC50) was 468 nM. Under `CC(C(=O)NC12CC(CC#N)(C1)C2)[C@H]1[C@@H]2C[C@@H](Oc3ccnc4ccc(F)cc34)C[C@@H]21` (stereo partly drawn) [Example 8, N-(3-(cyanomethyl)bicyclo[1.1.1]pentan-1-yl)-2-((1R,3s,5S,6r)-3-((6-fluoroquinolin-4-yl)-oxy)bicyclo[3.1.0]hexan-6-yl)propanamide] stands 51.3 nM; under `COCC12CC(NC(=O)C(C)[C@H]3[C@@H]4C[C@@H](Oc5ccnc6ccc(F)cc56)C[C@@H]43)(C1)C2` (stereo partly drawn) [Example 9, 2-((1R,3s,5S,6r)-3-((6-fluoroquinolin-4-yl)oxy)bicyclo[3.1.0]hexan-6-yl)-N-(3-(methoxymethyl)bicyclo[1.1.1]pentan-1-yl)propanamide], 55 nM.

The molecule `CC(C(=O)NC12CC(N)(C1)C2)[C@H]1[C@@H]2C[C@@H](Oc3ccnc4ccc(F)cc34)C[C@@H]21` (stereo partly drawn) [Example 11, N-(3-aminobicyclo[1.1.1]pentan-1-yl)-2-((1R,3s,5S,6r)-3-((6-fluoroquinolin-4-yl)oxy)-bicyclo-[3.1.0]hexan-6-yl)propanamide] returned an IC50 of 1600 nM. Under `CCC(c1nc2cc(C(F)(F)F)ccc2[nH]1)[C@H]1[C@@H]2C[C@@H](Oc3ccnc4ccc(F)cc34)C[C@@H]21` (stereo partly shown) [Example 12] stands 0.85 nM; under `CC(C(=O)NC12CC(C(C)O)(C1)C2)[C@H]1[C@@H]2C[C@@H](n3cnc4cc(F)c(F)cc43)C[C@@H]21` (stereo partly drawn) [Example 13, 2-((1R,3s,5S,6r)-3-(5,6-difluoro-1H-benzo[d]imidazol-1-yl)bicyclo[3.1.0]hexan-6-yl)-N-(3-(1-hydroxyethyl)bicyclo[1.1.1]pentan-1-yl)propanamide], 626 nM; under `CC(C(=O)Nc1ccc(Cl)cc1)[C@H]1[C@@H]2C[C@@H](n3cnc4ccc(C#N)cc43)C[C@@H]21` (stereo partly drawn) [Example 16, N-(4-chlorophenyl)-2-((1R,3s,5S,6r)-3-(6-cyano-1H-benzo[d]imidazol-1-yl)-bicyclo[3.1.0]hexan-6-yl)-propanamide], 4.4 nM. Molecule `CC(C(=O)Nc1ccc(C(F)(F)F)cn1)[C@H]1[C@@H]2C[C@@H](n3cnc4cc(F)c(F)cc43)C[C@@H]21` (stereo partly drawn) [Example 18, 2-((1R,3s,5S,6r)-3-(5,6-difluoro-1H-benzo[d]-imidazol-1-yl)bicyclo-[3.1.0]hexan-6-yl)-N-(5-(trifluoromethyl)pyridin-2-yl)propanamide] displayed an IC50 of 4.8 nM.

Take `CC(C(=O)Nc1ccc(Cl)cn1)[C@H]1[C@@H]2C[C@@H](n3cnc4cc(F)c(F)cc43)C[C@@H]21` (stereo partly drawn) [Example 22, N-(5-chloropyridin-2-yl)-2-((1R,3s,5S,6r)-3-(5,6-difluoro-1H-benzo[d]-imidazol-1-yl)bicyclo-[3.1.0]hexan-6-yl)-propanamide]: the midpoint of inhibition, the IC50, lay at 2.5 nM. Under `CC(C(=O)NC12CC(C#N)(C1)C2)[C@H]1[C@@H]2C[C@@H](n3cnc4cc(F)c(F)cc43)C[C@@H]21` (stereo partly drawn) [Example 23, N-(3-cyanobicyclo-[1.1.1]pentan-1-yl)-2-((1R,3s,5S,6r)-3-(5,6-difluoro-1H-benzo[d]-imidazol-1-yl)bicyclo-[3.1.0]hexan-6-yl)-propanamide] stands 1650 nM. The value for `CC(C(=O)NC12CC(C(F)(F)F)(C1)C2)[C@H]1[C@@H]2C[C@@H](n3cnc4cc(F)c(F)cc43)C[C@@H]21` (stereo partly drawn) [Example 24, 2-((1R,3s,5S,6r)-3-(5,6-difluoro-1H-benzo[d]-imidazol-1-yl)bicyclo-[3.1.0]hexan-6-yl)-N-(3-(trifluoromethyl)bicyclo [1.1.1]pentan-1-yl)-propanamide] was 117 nM; that for `CC(C(=O)NC1CC(F)C1)[C@H]1[C@@H]2C[C@@H](n3cnc4cc(F)c(F)cc43)C[C@@H]21` (stereo partly drawn) [Example 25, 2-((1R,3s,5S,6r)-3-(5,6-difluoro-1H-benzo[d]-imidazol-1-yl)bicyclo-[3.1.0]hexan-6-yl)-N-(3-fluorocyclobutyl)-propanamide] was 3420 nM; that for `COc1ccc(NC(=O)C(C)[C@H]2[C@@H]3C[C@@H](n4cnc5cc(F)c(F)cc54)C[C@@H]32)nc1` (stereo partly drawn) [Example 27, 2-((1R,3s,5S,6r)-3-(5,6-difluoro-1H-benzo[d]-imidazol-1-yl)bicyclo-[3.1.0]hexan-6-yl)-N-(5-methoxypyridin-2-yl)-propanamide] was 6.63 nM. The value for `CC(C(=O)NC12CC(F)(C1)C2)[C@H]1[C@@H]2C[C@@H](n3cnc4cc(F)c(F)cc43)C[C@@H]21` (stereo partly drawn) [Example 28, 2-((1R,3s,5S,6r)-3-(5,6-difluoro-1H-benzo[d]-imidazol-1-yl)bicyclo-[3.1.0]hexan-6-yl)-N-(3-fluorobicyclo[1.1.1]pentan-1-yl)propanamide] was 2520 nM.

Regarding `Cc1ccc(NC(=O)C(C)[C@H]2[C@@H]3C[C@@H](n4cnc5cc(F)c(F)cc54)C[C@@H]32)nc1` (stereo partly drawn) [Example 29, 2-((1R,3s,5S,6r)-3-(5,6-difluoro-1H-benzo[d]-imidazol-1-yl)bicyclo-[3.1.0]hexan-6-yl)-N-(5-methylpyridin-2-yl)-propanamide], the IC50 was 10.9 nM. Under `CC(C(=O)NC1CC(F)(F)C1)[C@H]1[C@@H]2C[C@@H](n3cnc4cc(F)c(F)cc43)C[C@@H]21` (stereo partly drawn) [Example 30, 2-((1R,3s,5S,6r)-3-(5,6-difluoro-1H-benzo[d]-imidazol-1-yl)bicyclo-[3.1.0]hexan-6-yl)-N-(3,3-difluorocyclobutyl)-propanamide] stands 1640 nM; under `CC(C(=O)Nc1cnn(C)c1)[C@H]1[C@@H]2C[C@@H](n3cnc4cc(F)c(F)cc43)C[C@@H]21` (stereo partly drawn) [Example 31, 2-((1R,3s,5S,6r)-3-(5,6-difluoro-1H-benzo[d]-imidazol-1-yl)bicyclo-[3.1.0]hexan-6-yl)-N-(1-methyl-1H-pyrazol-4-yl)-propanamide], 141 nM. Under `CC(C(=O)NC1CCC(F)(F)C1)[C@H]1[C@@H]2C[C@@H](n3cnc4cc(F)c(F)cc43)C[C@@H]21` (stereo partly drawn) [Example 32, 2-((1R,3s,5S,6r)-3-(5,6-difluoro-1H-benzo[d]-imidazol-1-yl)bicyclo-[3.1.0]hexan-6-yl)-N-(3,3-difluorocyclopentyl)-propanamide] stands 289 nM. Under `CC(C(=O)Nc1ccn(C)n1)[C@H]1[C@@H]2C[C@@H](n3cnc4cc(F)c(F)cc43)C[C@@H]21` (stereo partly drawn) [Example 34, 2-((1R,3s,5S,6r)-3-(5,6-difluoro-1H-benzo[d]-imidazol-1-yl)bicyclo-[3.1.0]hexan-6-yl)-N-(1-methyl-1H-pyrazol-3-yl)-propanamide] stands 179 nM; under `O=C(N[C@H](C1CC1)[C@H]1[C@@H]2C[C@@H](Oc3ccnc4ccc(F)cc34)C[C@@H]21)c1ccc(Cl)cc1` [Example 38, 4-chloro-N-((R)-cyclo-propyl((1R,3s,5S,6r)-3-((6-fluoroquinolin-4-yl)oxy)-bicyclo[3.1.0]hexan-6-yl)-methyl)benzamide], 1.37 nM; under `CC(C(=O)NC12CC(c3ccc(F)cc3)(C1)C2)[C@H]1[C@@H]2C[C@@H](n3cnc4cc(F)c(F)cc43)C[C@@H]21` (stereo partly drawn) [Example 39, 2-((1R,3s,5S,6r)-3-(5,6-difluoro-1H-benzo[d]-imidazol-1-yl)bicyclo-[3.1.0]hexan-6-yl)-N-(3-(4-fluorophenyl)bicyclo-[1.1.1]pentan-1-yl)-propanamide], 12.9 nM. Regarding `CC(C(=O)NC1CCC(F)(F)CC1)[C@H]1[C@@H]2C[C@@H](n3cnc4cc(F)c(F)cc43)C[C@@H]21` (stereo partly drawn) [Example 43, 2-((1R,3s,5S,6r)-3-(5,6-difluoro-1H-benzo[d]-imidazol-1-yl)bicyclo-[3.1.0]hexan-6-yl)-N-(4,4-difluorocyclohexyl)-propanamide], the IC50 was 192 nM. Compared with the last molecule, the IC50 is about 15-fold higher.

`CC(C(=O)NCC(F)(F)F)[C@H]1[C@@H]2C[C@@H](n3cnc4cc(F)c(F)cc43)C[C@@H]21` (stereo partly drawn) [Example 44, 2-((1R,3s,5S,6r)-3-(5,6-difluoro-1H-benzo[d]-imidazol-1-yl)bicyclo-[3.1.0]hexan-6-yl)-N-(2,2,2-trifluoroethyl)-propanamide] registered an IC50 of 6760 nM. The value for `CC(C(=O)NCCC(F)(F)F)[C@H]1[C@@H]2C[C@@H](n3cnc4cc(F)c(F)cc43)C[C@@H]21` (stereo partly drawn) [Example 45, 2-((1R,3s,5S,6r)-3-(5,6-difluoro-1H-benzo[d]-imidazol-1-yl)bicyclo-[3.1.0]hexan-6-yl)-N-(3,3,3-bifluoropropyl)-propanamide] was 663 nM.

Source of the values: patent US11046649B2, “Compounds useful as inhibitors of indoleamine 2,3-dioxygenase and/or tryptophan dioxygenase” (Board of Regents, The University of Texas System, priority 2018, dated 2021).
